For one molecule, IC50, Clblood and Fmax results are on record in patent US11427553B2, “Dihydrooxadiazinones” (Bayer Aktiengesellschaft, priority 2017, dated 2022).

pIC50: −log10 of the molar value.

The test system of one data set is HeLa cells. The data set is described as follows: Assay 1 cell proliferation measurement (CTG, 72 h), HeLa. The class given is cell-based, human. The conditions noted are these: Homo sapiens, HeLa; Assay 1, 72 h, Cell Titer Glo; read-out: HeLa IC50 [nM] (Cervical cancer). The method in brief: (§1)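 CellTiter-Glo luminescence was read at treatment start (0 h plate) and after 72 h compound exposure at 37 °C. Doses were 2.5-fold steps, ten concentrations, top 100 nM final, 0.3% DMSO. Growth inhibition was scaled between 0 h and vehicle values, and IC50 was obtained by 4-parameter fitting.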
(In general: In ATP-based viability assays light output follows the ATP content of the culture.)

A further data set concerns SK-MEL-3 cells. The data set is described as follows: Assay 1 cell proliferation measurement (CTG, 72 h), SK-MEL-3. It is filed as cell-based, human. The settings on record: Homo sapiens, SK-MEL3; Assay 1, 72 h, Cell Titer Glo; read-out: SK-MEL-3 IC50 [nM] (melanoma). The method in brief:
as §1

In the next data set the test system is HEL 92.1.7 cells. The data set is described as follows: Assay 1 cell proliferation measurement, HEL 92.1.7. It is filed as cell-based. The conditions noted are these: Homo sapiens, Erythroleukemia, read-out: Anti-proliferation IC50 [nM] HEL 92.1.7.
A further data set concerns H4 cells. In words: Assay 1 cell proliferation measurement, H4. The class given is cell-based. The settings on record: Homo sapiens; Astrocytoma; read-out: Anti-proliferation IC50 [nM] H4.
The next data set concerns NCI-H1734 cells. The data set is described as follows: Assay 1 cell proliferation measurement, NCI-H1734. The class given is cell-based. The settings on record: Homo sapiens, Lung, read-out: Anti-proliferation IC50 [nM] NCI-H1734.
The subject of the next data set is IGR-1 cells. The data set is described as follows: Assay 1 cell proliferation measurement, IGR-1. It is filed as cell-based. The settings on record: Homo sapiens, Melanoma, read-out: Anti-proliferation IC50 [nM] IGR-1.
In another data set the test system is HMCB cells. The data set is described as follows: Assay 1 cell proliferation measurement, HMCB. The settings on record: Homo sapiens, Melanoma, read-out: Anti-proliferation IC50 [nM] HMCB. The class given is cell-based.
A further data set concerns the target human full length PDE3A (Homo sapiens (Human), UniProt Q14432). The data set is described as follows: Assay 4 PDE3A enzyme inhibition (3H-cAMP SPA). It is filed as biochemical. The conditions noted are these: Sf9 cell extract. An outline of the steps: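 Hydrolysis of [8-3H]cAMP by Sf9-expressed full-length PDE3A was measured by scintillation proximity, with enzyme diluted to keep kinetics linear and substrate consumption below 70%. Incubation ran 60 min at room temperature at pH 7.5.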

The target in another data set is human full length PDE3B (Homo sapiens (Human), UniProt Q13370). The data set is described as follows: Assay 5 PDE3B enzyme inhibition (3H-cAMP SPA). The conditions noted are these: Sf9 cell extract. The class given is biochemical. An outline of the steps:
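Compounds in DMSO are mixed with diluted PDE3B extract from Sf9 cells, and reactions start on adding tritiated cAMP. After 60 min at room temperature, yttrium scintillation proximity beads terminate hydrolysis and signal is counted; IC50 values come from sigmoidal dose-response curves.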

Data set [1] is described as follows: Assay 6 in vitro metabolic stability in cryopreserved human hepatocytes (CL, Fmax). It is filed as in vitro ADME. The conditions noted are these: 1 μM test compound. An outline of the steps: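 Test compound at 1 μM incubated with cryopreserved human hepatocytes (1.0×10^6 viable cells/ml, WME with 5% FCS) under shaking, with samples taken from 2 to 90 min, methanol-quenched and analysed by LC-MS/MS. Half-life gave intrinsic clearance, scaled with liver blood flow and hepatocellularity to CL and Fmax.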

Sequence of human full length PDE3A (Q14432 whole entry): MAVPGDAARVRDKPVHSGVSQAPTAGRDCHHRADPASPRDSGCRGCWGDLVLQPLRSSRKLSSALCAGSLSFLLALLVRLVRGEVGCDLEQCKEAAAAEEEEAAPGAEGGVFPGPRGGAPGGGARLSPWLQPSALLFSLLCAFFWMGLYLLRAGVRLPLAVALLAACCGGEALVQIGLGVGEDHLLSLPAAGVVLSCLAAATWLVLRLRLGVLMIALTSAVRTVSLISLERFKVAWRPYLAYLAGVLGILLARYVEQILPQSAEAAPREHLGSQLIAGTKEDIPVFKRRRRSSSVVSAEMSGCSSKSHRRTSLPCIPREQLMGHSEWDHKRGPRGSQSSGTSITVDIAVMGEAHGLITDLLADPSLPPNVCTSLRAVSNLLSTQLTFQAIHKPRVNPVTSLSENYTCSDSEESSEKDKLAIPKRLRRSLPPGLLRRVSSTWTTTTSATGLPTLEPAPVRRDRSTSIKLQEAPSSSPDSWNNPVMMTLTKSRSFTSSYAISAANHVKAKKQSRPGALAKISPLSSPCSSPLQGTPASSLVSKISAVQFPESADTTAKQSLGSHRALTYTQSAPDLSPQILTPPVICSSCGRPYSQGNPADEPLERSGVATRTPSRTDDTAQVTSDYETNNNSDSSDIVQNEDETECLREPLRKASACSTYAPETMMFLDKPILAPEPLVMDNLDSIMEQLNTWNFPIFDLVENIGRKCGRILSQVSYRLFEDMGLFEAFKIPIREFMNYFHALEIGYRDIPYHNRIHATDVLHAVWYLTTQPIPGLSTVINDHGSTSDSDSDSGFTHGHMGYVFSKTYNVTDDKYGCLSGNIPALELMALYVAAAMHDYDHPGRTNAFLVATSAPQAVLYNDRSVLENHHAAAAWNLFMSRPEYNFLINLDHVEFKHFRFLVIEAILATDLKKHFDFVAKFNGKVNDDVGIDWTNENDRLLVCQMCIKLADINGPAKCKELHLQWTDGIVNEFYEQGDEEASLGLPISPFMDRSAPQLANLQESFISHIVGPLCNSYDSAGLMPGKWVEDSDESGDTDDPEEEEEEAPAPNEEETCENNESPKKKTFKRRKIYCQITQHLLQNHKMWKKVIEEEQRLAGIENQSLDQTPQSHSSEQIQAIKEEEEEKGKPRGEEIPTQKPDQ
Sequence of human full length PDE3B (Q13370 whole entry): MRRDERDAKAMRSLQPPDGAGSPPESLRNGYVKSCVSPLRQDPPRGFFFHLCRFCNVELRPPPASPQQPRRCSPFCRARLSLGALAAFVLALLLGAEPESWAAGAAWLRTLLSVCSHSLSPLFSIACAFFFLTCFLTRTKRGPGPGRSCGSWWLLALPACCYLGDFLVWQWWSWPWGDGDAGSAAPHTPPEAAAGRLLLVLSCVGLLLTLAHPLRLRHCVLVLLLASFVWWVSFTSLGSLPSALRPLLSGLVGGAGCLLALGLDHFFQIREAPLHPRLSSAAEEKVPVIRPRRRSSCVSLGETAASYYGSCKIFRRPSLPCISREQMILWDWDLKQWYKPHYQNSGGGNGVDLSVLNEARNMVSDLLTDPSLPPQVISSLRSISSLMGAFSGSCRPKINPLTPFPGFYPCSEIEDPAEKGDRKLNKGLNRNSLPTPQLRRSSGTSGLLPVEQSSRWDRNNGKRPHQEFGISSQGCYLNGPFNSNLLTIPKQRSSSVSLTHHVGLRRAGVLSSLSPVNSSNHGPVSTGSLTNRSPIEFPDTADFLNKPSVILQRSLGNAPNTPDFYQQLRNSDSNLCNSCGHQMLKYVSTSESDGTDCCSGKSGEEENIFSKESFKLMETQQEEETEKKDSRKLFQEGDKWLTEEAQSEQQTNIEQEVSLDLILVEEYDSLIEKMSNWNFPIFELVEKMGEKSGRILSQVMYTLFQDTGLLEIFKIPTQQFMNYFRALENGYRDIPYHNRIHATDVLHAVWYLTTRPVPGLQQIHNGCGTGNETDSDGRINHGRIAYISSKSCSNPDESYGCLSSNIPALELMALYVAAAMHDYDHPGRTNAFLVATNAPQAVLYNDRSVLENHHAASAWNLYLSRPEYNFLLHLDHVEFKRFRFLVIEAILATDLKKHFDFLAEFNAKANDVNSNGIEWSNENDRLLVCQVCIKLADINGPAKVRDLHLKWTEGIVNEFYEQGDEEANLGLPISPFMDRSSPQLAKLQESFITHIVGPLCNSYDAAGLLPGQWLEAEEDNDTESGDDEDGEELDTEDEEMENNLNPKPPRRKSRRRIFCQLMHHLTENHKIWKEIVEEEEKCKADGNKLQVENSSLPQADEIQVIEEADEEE

With `O=C1NN=C(c2ccc(N3CCC(F)(F)CC3)c(F)c2)CO1` [Example 1, 5-[4-(4,4-Difluoropiperidin-1-yl)-3-fluorophenyl]-3,6-dihydro-2H-1,3,4-oxadiazin-2-one], the IC50 is 2 nM in the data set with HeLa cells; 3 nM in the data set on SK-MEL-3 cells; 20 nM in the data set with HEL 92.1.7 cells; 30 nM with H4 cells; 19 nM in the data set with NCI-H1734 cells; 89 nM in the data set on IGR-1 cells. Further, the IC50 in the data set on HMCB cells was determined as 19 nM. The pIC50 (in general, the IC50 on a negative log10 scale, so that one unit is a factor of ten) against human full length PDE3A is 6.56; at human full length PDE3B, 6.76. Moreover, in data set [1] (hepatic in vivo blood clearance calculated (well-stirred) from half-life in cryopreserved human hepatocytes), the Clblood was 4 mL/min/kg. Further, the Fmax in data set [1] (maximal oral bioavailability calculated from half-life in cryopreserved human hepatocytes) is listed as 82%.
